Reference: US6207399A, “Methods of determining endogenous thrombin potential (ETP) and thrombin substrates for use in said methods” (Hemker; Hendrik Coenraad, priority 1995, dated 2001)
Blank lines part the entries; values can stand above or below the compound they belong to. Peptide text beside a SMILES is read from it. * marks the point of attachment. pNA = O=[N+]([O-])c1ccc(N*)cc1

Legend:
factor Xa = target: T1, factor Xa (Homo sapiens, UniProt P00742); test: Kinetic parameters of hydrolysis of the substrates by factor Xa in buffer A at 37° C. (Example 4, Table 3); assay type: biochemical; settings: buffer A, 37° C., 50 nM factor Xa
T1 construct: human factor Xa samples; gift of Dr. T. Lindhout (University of Limburg, Maastricht)
T1 sequence (P00742 41-179 limits assumed): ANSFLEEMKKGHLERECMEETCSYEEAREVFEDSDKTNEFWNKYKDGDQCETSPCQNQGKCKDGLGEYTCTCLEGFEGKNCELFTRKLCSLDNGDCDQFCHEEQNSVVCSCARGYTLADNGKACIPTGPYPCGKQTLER
T1 sequence (P00742 235-488 limits assumed): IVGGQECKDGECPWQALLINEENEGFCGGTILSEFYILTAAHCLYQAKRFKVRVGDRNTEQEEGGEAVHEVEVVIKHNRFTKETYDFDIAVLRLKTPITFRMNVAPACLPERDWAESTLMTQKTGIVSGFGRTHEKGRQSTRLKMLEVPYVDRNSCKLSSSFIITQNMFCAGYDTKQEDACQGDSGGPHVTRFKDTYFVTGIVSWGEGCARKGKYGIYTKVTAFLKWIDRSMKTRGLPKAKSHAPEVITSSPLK
Procedure: (§1) Kinetic parameters: The hydrolysis experiments were run in buffer A at 37° C. The liberation of p-nitroaniline was monitored at 405 nm in a dual wavelength (405-546 nm) spectrophotometer made in our workshop, using a personal computer for data recording. In a polystyrene microcuvette (total volume 500 μL), buffer A and substrate solution were added to obtain a final substrate concentration between 200 to 2000 μM. After 5 min of incubation at 37° C., enzyme solution was added to achieve a final concentration between 0.5 to 50 nM. The measurement was carried out at 37° C. in a thermostated cuvette-holder. The Michaelis constant (Km) and the catalytic constant (kcat) were obtained by measuring the initial reaction velocities at different substrate concentrations. The data obtained were fitted by linear regression on the Michaelis-Menten equation.
(§2) Kinetic parameters: The Km and kcat values for each substrate were determined at an enzyme concentration of 0.5-50 nM (thrombin) and 50 nM factor Xa. From the initial reaction velocities, measured for at least six substrate concentrations between 200 and 2000 μM, the Km and kcat values were calculated by linear regression on the Michaelis-Menten curve. Table 3 gives an overview of the kinetic parameters of the different substrates hydrolyzed by thrombin and by factor Xa in buffer A.

thrombin = thrombin (Homo sapiens, UniProt P00734); test: Kinetic parameters of hydrolysis of the substrates by thrombin in buffer A at 37° C. (Example 4, Table 3); assay type: biochemical; design: Pure human α-thrombin; gift of Dr. T. Lindhout (University of Limburg, Maastricht); settings: buffer A, 37° C.
Procedure: as §1, §2

[1] = tested on: thrombin generation in tissue factor triggered plasma; test: Manual determination of thrombin generation in plasma (subsampling method) and calculated prothrombinase activity; assay type: biochemical, human; settings: for influence on the prothrombinase complex / coagulation cascade: calculated from decay constants and manual thrombin generation curves
Procedure: Manual determination of thrombin generation in plasma: Extrinsic pathway: To 480 μL defibrinated plasma were added: 172 μL buffer A which contains the substrate at concentrations between 0 to 2000 μM and 20 μL of a 54 μM phospholipid solution (final concentration: 1.5 μM). After incubation of 4 min at 37° C., 24 μL tissue factor (undiluted) was added. Thrombin formation started at zero time by adding 24 μL of a 0.5 M CaCl2 solution (final concentration: 16.67 mM). At regular time intervals of 12 s samples of 10 μL were subsampled as described above. From the amidolytic activities thus obtained, the thrombin generation curve can be drawn. […] Intrinsic pathway: To 480 μL defibrinated plasma were added: 168 μL buffer A which contains the substrate at concentrations between 0 to 1000 μM and 48 μL Actin FS (undiluted). This mixture was intensively mixed and incubated for 4 min at 37° C. Thrombin generation was started at zero time by adding 24 μL of a 0.5 M CaCl2 solution (final concentration: 16.67 mM).
Influence of the substrate on the prothrombinase-complex: With the obtained decay constants and from the curves obtained by the subsampling method we calculated the course of prothrombin conversion and the course of prothrombinase concentration.
Manual determination of thrombin generation in plasma: Extrinsic pathway: To 480 μL defibrinated plasma were added: 172 μL buffer A which contained the substrate at concentrations between 0 to 2000 μM and 20 μL of a 54 μM phospholipid solution (final concentration: 1.5 μM). After incubation for 4 min at 37° C., 24 μL tissue factor (undiluted) was added. Thrombin formation started at zero time by adding 24 μL of a 0.5 M CaCl2 solution (final concentration: 16.67 mM). At regular time intervals of 12 s samples of 10 μL were subsampled as described above. From the amidolytic activities thus obtained, the thrombin generation curve can be drawn.
Influence of the substrate on the prothrombinase-compzex: With the obtained decay constants and from the curves obtained by the subsampling method we calculated the course of prothrombin conversion and the course of prothrombinase concentration.

euglobulin thrombin = target: T2, euglobulin thrombin (Homo sapiens, UniProt P00734); test: Decay constants of thrombin in plasma; assay type: biochemical
T2 construct: The euglobulin thrombin fraction was prepared from defibrinated human plasma; from tissue; host or cells: defibrinated human plasma (euglobulin fraction, acid precipitation, method of Josso and Prou-Wartelle)
Procedure: (§3) To this mixture was added 10 μL of a thrombin preparation to achieve a final concentration of 100 nM. At regular time intervals (5-10 s) 10 μL samples were subsampled into 490 μL buffer B which contained 200 μM of S2238 to determine thrombin activity. After 2 min the reaction was stopped by adding 300 μL 1M citric acid. The moment of sampling and stopping were recorded on a personal computer with pushbutton-equipped pipettes. The optical density was then read at 405 nm and the obtained amidolytic activities were used to calculate the decay constants. The obtained decay constant is the sum of the decay constants of the reaction of thrombin with antithrombin III (k1) and α2 -macroglobulin (k2).
as §3, with “Decay constants of thrombin in plasma: To 120 μL defibrinated plasma was added: 50 μL of buffer A which contained the substances to be tested. To” for “To”, “was” for “was then”

Compound: CC(C)[C@H](NC(=O)CNC(=O)CNC(=O)[C@@H](N)CCC(=O)O)C(=O)N[C@@H](CCCNC(=N)N)C(=O)Nc1ccc([N+](=O)[O-])cc1 [2HCl.H-Glu-Gly-Gly-Val-Arg-pNA] (H-EGGVR-pNA)
Factor Xa kcat (factor Xa): 0.42 s⁻¹
Factor Xa kcat /Km (factor Xa): 192 M/s
Km (factor Xa): 2190 µM
Km (thrombin): 1010 µM
Thrombin kcat (thrombin): 0.55 s⁻¹
Thrombin kcat /Km (thrombin): 542 M/s
AA: amidolytic activity (maximum) ([1]; [S] 200 μM): 350.62 mOD/min
PT: prothrombinase concentration (maximum) ([1]; [S] 200 μM): 1086 mOD/min
T: thrombin concentration (maximum) ([1]; [S] 200 μM): 335.47 mOD/min
t: time point at which maximum of amidolytic activity is achieved ([1]; [S] 200 μM): 60 s
t: time point at which maximum of prothrombinase concentration is achieved ([1]; [S] 200 μM): 24 s
t: time point at which maximum of thrombin concentration is achieved ([1]; [S] 200 μM): 60 s
k2,M : k2 determined by the subsampling method ([1]; [S] 200 μM in plasma): 0.220 min⁻¹
AA: amidolytic activity (maximum) ([1]; [S] 500 μM): 376.42 mOD/min
PT: prothrombinase concentration (maximum) ([1]; [S] 500 μM): 1122 mOD/min
T: thrombin concentration (maximum) ([1]; [S] 500 μM): 359.48 mOD/min
t: time point at which maximum of amidolytic activity is achieved ([1]; [S] 500 μM): 60 s
t: time point at which maximum of prothrombinase concentration is achieved ([1]; [S] 500 μM): 24 s
t: time point at which maximum of thrombin concentration is achieved ([1]; [S] 500 μM): 60 s
k2,M : k2 determined by the subsampling method ([1]; [S] 500 μM in plasma): 0.192 min⁻¹
AA: amidolytic activity (maximum) ([1]; [S] 1000 μM): 409.85 mOD/min
PT: prothrombinase concentration (maximum) ([1]; [S] 1000 μM): 1149 mOD/min
T: thrombin concentration (maximum) ([1]; [S] 1000 μM): 396.23 mOD/min
t: time point at which maximum of amidolytic activity is achieved ([1]; [S] 1000 μM): 60 s
t: time point at which maximum of prothrombinase concentration is achieved ([1]; [S] 1000 μM): 24 s
t: time point at which maximum of thrombin concentration is achieved ([1]; [S] 1000 μM): 60 s
k2,M : k2 determined by the subsampling method ([1]; [S] 1000 μM in plasma): 0.169 min⁻¹
influence on the prothrombinase complex / coagulation cascade [1]: no inhibition of the prothrombinase activity
(k1,corr) = k1,corr divided by μM AT-III (euglobulin thrombin; [S] 200 μM in plasma): 20380 M⁻¹ s⁻¹
k1,corr : k1 after correcting for k2,M and 0.170 (euglobulin thrombin; [S] 200 μM in plasma): 1.769 min⁻¹
k1 : AT-III dependent decay of thrombin (euglobulin thrombin; [S] 200 μM in plasma): 1.946 min⁻¹
k2 : α2 M dependent decay of thrombin (euglobulin thrombin; [S] 200 μM in plasma): 0.213 min⁻¹
koverall (euglobulin thrombin; [S] 200 μM in plasma): 2.159 min⁻¹
t1/2 (euglobulin thrombin; [S] 200 μM in plasma): 19.26 s
(k1,corr) = k1,corr divided by μM AT-III (euglobulin thrombin; [S] 500 μM in plasma): 19150 M⁻¹ s⁻¹
k1,corr : k1 after correcting for k2,M and 0.170 (euglobulin thrombin; [S] 500 μM in plasma): 1.662 min⁻¹
k1 : AT-III dependent decay of thrombin (euglobulin thrombin; [S] 500 μM in plasma): 1.733 min⁻¹
k2 : α2 M dependent decay of thrombin (euglobulin thrombin; [S] 500 μM in plasma): 0.291 min⁻¹
koverall (euglobulin thrombin; [S] 500 μM in plasma): 2.024 min⁻¹
t1/2 (euglobulin thrombin; [S] 500 μM in plasma): 21.04 s
(k1,corr) = k1,corr divided by μM AT-III (euglobulin thrombin; [S] 1000 μM in plasma): 16400 M⁻¹ s⁻¹
k1,corr : k1 after correcting for k2,M and 0.170 (euglobulin thrombin; [S] 1000 μM in plasma): 1.427 min⁻¹
k1 : AT-III dependent decay of thrombin (euglobulin thrombin; [S] 1000 μM in plasma): 1.594 min⁻¹
k2 : α2 M dependent decay of thrombin (euglobulin thrombin; [S] 1000 μM in plasma): 0.172 min⁻¹
koverall (euglobulin thrombin; [S] 1000 μM in plasma): 1.766 min⁻¹
t1/2 (euglobulin thrombin; [S] 1000 μM in plasma): 23.56 s

Factor Xa kcat (factor Xa): 4.69 s⁻¹
Factor Xa kcat /Km (factor Xa): 491 M/s
Km (factor Xa): 9550 µM
Km (thrombin): 882 µM
Thrombin kcat (thrombin): 0.79 s⁻¹
Thrombin kcat /Km (thrombin): 894 M/s
AA: amidolytic activity (maximum) ([1]; [S] 200 μM): 388.15 mOD/min
PT: prothrombinase concentration (maximum) ([1]; [S] 200 μM): 1119 mOD/min
T: thrombin concentration (maximum) ([1]; [S] 200 μM): 371.24 mOD/min
t: time point at which maximum of amidolytic activity is achieved ([1]; [S] 200 μM): 60 s
t: time point at which maximum of prothrombinase concentration is achieved ([1]; [S] 200 μM): 24 s
t: time point at which maximum of thrombin concentration is achieved ([1]; [S] 200 μM): 60 s
k2,M : k2 determined by the subsampling method ([1]; [S] 200 μM in plasma): 0.198 min⁻¹
AA: amidolytic activity (maximum) ([1]; [S] 500 μM): 387.15 mOD/min
PT: prothrombinase concentration (maximum) ([1]; [S] 500 μM): 1090 mOD/min
T: thrombin concentration (maximum) ([1]; [S] 500 μM): 374.80 mOD/min
t: time point at which maximum of amidolytic activity is achieved ([1]; [S] 500 μM): 60 s
t: time point at which maximum of prothrombinase concentration is achieved ([1]; [S] 500 μM): 24 s
t: time point at which maximum of thrombin concentration is achieved ([1]; [S] 500 μM): 60 s
k2,M : k2 determined by the subsampling method ([1]; [S] 500 μM in plasma): 0.178 min⁻¹
AA: amidolytic activity (maximum) ([1]; [S] 1000 μM): 456.42 mOD/min
PT: prothrombinase concentration (maximum) ([1]; [S] 1000 μM): 1346 mOD/min
T: thrombin concentration (maximum) ([1]; [S] 1000 μM): 443.82 mOD/min
t: time point at which maximum of amidolytic activity is achieved ([1]; [S] 1000 μM): 60 s
t: time point at which maximum of prothrombinase concentration is achieved ([1]; [S] 1000 μM): 24 s
t: time point at which maximum of thrombin concentration is achieved ([1]; [S] 1000 μM): 60 s
k2,M : k2 determined by the subsampling method ([1]; [S] 1000 μM in plasma): 0.144 min⁻¹
(k1,corr) = k1,corr divided by μM AT-III (euglobulin thrombin; [S] 200 μM in plasma): 18300 M⁻¹ s⁻¹
k1,corr : k1 after correcting for k2,M and 0.170 (euglobulin thrombin; [S] 200 μM in plasma): 1.590 min⁻¹
k1 : AT-III dependent decay of thrombin (euglobulin thrombin; [S] 200 μM in plasma): 1.729 min⁻¹
k2 : α2 M dependent decay of thrombin (euglobulin thrombin; [S] 200 μM in plasma): 0.229 min⁻¹
koverall (euglobulin thrombin; [S] 200 μM in plasma): 1.958 min⁻¹
t1/2 (euglobulin thrombin; [S] 200 μM in plasma): 21.24 s
(k1,corr) = k1,corr divided by μM AT-III (euglobulin thrombin; [S] 500 μM in plasma): 16600 M⁻¹ s⁻¹
k1,corr : k1 after correcting for k2,M and 0.170 (euglobulin thrombin; [S] 500 μM in plasma): 1.444 min⁻¹
k1 : AT-III dependent decay of thrombin (euglobulin thrombin; [S] 500 μM in plasma): 1.614 min⁻¹
k2 : α2 M dependent decay of thrombin (euglobulin thrombin; [S] 500 μM in plasma): 0.178 min⁻¹
koverall (euglobulin thrombin; [S] 500 μM in plasma): 1.792 min⁻¹
t1/2 (euglobulin thrombin; [S] 500 μM in plasma): 23.22 s
(k1,corr) = k1,corr divided by μM AT-III (euglobulin thrombin; [S] 1000 μM in plasma): 9100 M⁻¹ s⁻¹
k1,corr : k1 after correcting for k2,M and 0.170 (euglobulin thrombin; [S] 1000 μM in plasma): 0.790 min⁻¹
k1 : AT-III dependent decay of thrombin (euglobulin thrombin; [S] 1000 μM in plasma): 0.980 min⁻¹
k2 : α2 M dependent decay of thrombin (euglobulin thrombin; [S] 1000 μM in plasma): 0.124 min⁻¹
koverall (euglobulin thrombin; [S] 1000 μM in plasma): 1.104 min⁻¹
t1/2 (euglobulin thrombin; [S] 1000 μM in plasma): 37.70 s
Compound: CC(C)[C@H](NC(=O)OCCS(C)(=O)=O)C(=O)N[C@@H](CCCNC(=N)N)C(=O)Nc1ccc([N+](=O)[O-])cc1.Cl [Msc-Val-Arg-pNA.HCl]
influence on the prothrombinase complex / coagulation cascade [1]: no inhibition of the prothrombinase activity
